The values that follow come from patent publication US8586588B2, “Aryl pyridazinone derivatives and their use as H3 receptor ligands” (Cephalon, Inc., priority 2006, dated 2013).

One may read the melting point as the temperature, or range, at which the solid turns liquid. By Ki is commonly meant the dissociation constant of the complex between target and ligand, obtained from inhibition or displacement.

For data set [1], the target named is T1, rat histamine H3 receptor (Rattus norvegicus, UniProt Q9QYN8).
T1 construct: encoding the entire 445-amino-acid rat histamine H3 receptor; expressed in transfected cells
The data set can be described thus: Rat H3 radioligand binding ([3H]-N-alpha-methylhistamine, CHO-A3 cell membranes, SPA). Conditions: Table B, binding constant as letter class; read-out: rat H3 Ki. The gist of the method:
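Membranes from CHO-A3 cells stably expressing rat H3 (10 μg protein) incubated 4 h at room temperature in 50 mM Tris-HCl pH 7.4, 5 mM MgCl2, 0.1% BSA with ~1 nM [3H]-N-alpha-methylhistamine and compound (0.01 nM-30 μM). Bound radioligand read by scintillation proximity; nonspecific binding with 10 μM clobenpropit.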

The target of another data set is T2, human H3 receptor (Homo sapiens, UniProt Q9Y5N1).
T2 construct: expressed in transfected cells
The data set can be described thus: Human H3 radioligand binding ([3H]-N-alpha-methylhistamine, CHO cell membranes, SPA). Conditions: Table B. A digest of the protocol:
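CHO cell membranes expressing human H3 (10 μg protein/well) incubated 4 h at room temperature, in the dark, with ~1 nM [3H]-N-alpha-methylhistamine, compounds (0.01 nM-30 μM) and SPA beads in 50 mM Tris HCl pH 7.4, 5 mM MgCl2, 0.1% BSA. Non-specific binding defined with 10 μM clobenpropit.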

[2] abbreviates: binding constant as letter class.

T2 sequence (Q9Y5N1 whole entry): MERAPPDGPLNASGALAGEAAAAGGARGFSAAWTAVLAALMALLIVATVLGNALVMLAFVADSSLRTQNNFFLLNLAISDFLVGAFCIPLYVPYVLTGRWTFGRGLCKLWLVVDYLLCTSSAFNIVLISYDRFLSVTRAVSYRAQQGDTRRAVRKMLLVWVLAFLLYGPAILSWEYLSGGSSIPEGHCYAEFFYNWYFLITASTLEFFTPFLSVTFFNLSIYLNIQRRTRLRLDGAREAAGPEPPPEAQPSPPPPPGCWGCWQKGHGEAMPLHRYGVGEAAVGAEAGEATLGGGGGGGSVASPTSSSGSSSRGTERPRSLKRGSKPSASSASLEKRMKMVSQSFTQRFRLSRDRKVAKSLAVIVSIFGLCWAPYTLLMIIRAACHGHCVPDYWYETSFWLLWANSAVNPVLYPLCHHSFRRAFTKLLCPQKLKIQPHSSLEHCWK
T1 sequence (Q9QYN8 whole entry): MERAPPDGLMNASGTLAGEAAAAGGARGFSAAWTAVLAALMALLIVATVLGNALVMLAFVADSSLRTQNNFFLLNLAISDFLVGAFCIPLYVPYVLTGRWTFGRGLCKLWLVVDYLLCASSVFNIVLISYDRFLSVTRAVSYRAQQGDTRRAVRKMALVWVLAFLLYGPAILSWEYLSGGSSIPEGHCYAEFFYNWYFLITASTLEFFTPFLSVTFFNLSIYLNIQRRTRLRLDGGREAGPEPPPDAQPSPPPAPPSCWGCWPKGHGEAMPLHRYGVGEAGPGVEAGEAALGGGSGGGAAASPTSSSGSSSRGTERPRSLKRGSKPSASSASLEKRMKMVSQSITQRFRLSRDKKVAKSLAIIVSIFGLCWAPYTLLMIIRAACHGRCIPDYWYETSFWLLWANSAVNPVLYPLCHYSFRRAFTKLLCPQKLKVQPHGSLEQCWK

On to `O=C1NN=C(c2ccc(OC3CCN(C4CCC4)CC3)cc2)C2CCCC12` (stereo not drawn) [Example 174, 4-[4-(1-Cyclobutyl-piperidin-4-yloxy)-phenyl)-2,4a,5,6,7,7a-hexahydro-cyclopenta[d]pyridazin-1-one], for which the melting point was > 255 °C (dec.). The Ki in data set [1] fell in the range of 0.1 to 100 nM. Further, the inhibition constant (Ki) on human H3 receptor (setting [2]) was 0.1 to 100 nM.
In turn, `C[C@@H]1CCCN1CCCOc1ccc(C2=NNC(=O)C3CCCC23)cc1` (stereo partly drawn) [Example 175, 4-{4-[3-((R)-2-Methyl-pyrrolidin-1-yl)-propoxy]-phenyl}-2,4a,5,6,7,7a-hexahydro-cyclopenta[d]pyridazin-1-one] had a melting point of 218 to 219 °C. In addition, the Ki in data set [1] was in the range of 0.1 to 100 nM. On human H3 receptor (setting [2]), this molecule registered a Ki of 0.1 to 100 nM.
As for `O=c1[nH]nc(-c2ccc(OC3CCN(C4CCC4)CC3)cc2)c2c1CCC2` [Example 176, 4-[4-(1-Cyclobutyl-piperidin-4-yloxy)-phenyl]-2,5,6,7-tetrahydro-cyclopenta[d]pyridazin-1-one], the melting point fell in the range of 210 to 213 °C. For the same molecule, in data set [1], the Ki lay in the range of 0.1 to 100 nM. This molecule showed a Ki on human H3 receptor (setting [2]) of 0.1 to 100 nM.
Consider `O=C1CCC(c2ccc(OC3CCN(C4CCC4)CC3)nc2)=NN1C1CCC1` [Example 177, 2-Cyclobutyl-6-[6-(1-cyclobutyl-piperidin-4-yloxy)-pyridin-3-yl]-4,5-dihydro-2H-pyridazin-3-one], for which the melting point lay within 146 to 149 °C. The Ki in data set [1] is 0.1 to 100 nM. The Ki on human H3 receptor (setting [2]) fell in the range of 0.1 to 100 nM.
`C[C@@H]1CCCN1CCCOc1ccc(C2=NNC(=O)C(C)(C)C2)cc1` [Example 179, 4,4-Dimethyl-6-{4-[3-((R)-2-methyl-pyrrolidin-1-yl)-propoxy]-phenyl}-4,5-dihydro-2H-pyridazin-3-one]: the melting point lay in the range of 140 to 142 °C. Also, the Ki in data set [1] fell in the range of 0.1 to 100 nM. At human H3 receptor (setting [2]), this molecule displayed a Ki of 0.1 to 100 nM.
On to `C[C@@H]1CCCN1CCCOc1ccc(C2=NNC(=O)CC2)cc1F` [Example 180, 6-{3-Fluoro-4-[3-((R)-2-methyl-pyrrolidin-1-yl)-propoxy]-phenyl}-4,5-dihydro-2H-pyridazin-3-one], for which the melting point was in the range of 132 to 133 °C. For the same molecule, the Ki in data set [1] was 0.1 to 100 nM. The same molecule displayed a Ki at human H3 receptor (setting [2]) of 0.1 to 100 nM.
In turn, `O=C1CCC(c2ccc(OCCCN3CCCCC3)c(F)c2)=NN1` [Example 181, 6-[3-Fluoro-4-(3-piperidin-1-yl-propoxy)-phenyl]-4,5-dihydro-2H-pyridazin-3-one] gave a melting point of 164 to 166 °C. Further, the Ki in data set [1] is 101 to 500 nM. Moreover, the Ki at human H3 receptor (setting [2]) was 0.1 to 100 nM.
In the same order, the values of `C[C@@H]1CCCN1CCCOc1ccc(C2=NNC(=O)CC2(C)C)cc1` [Example 182, 5,5-Dimethyl-6-{4-[3-((R)-2-methyl-pyrrolidin-1-yl)-propoxy]-phenyl}-4,5-dihydro-2H-pyridazin-3-one] are 118 to 121 °C, 0.1 to 100 nM and 0.1 to 100 nM.
In the same order, the values of `C[C@@H]1CCCN1CCCOc1c(F)cc(-c2ccc(=O)[nH]n2)cc1F` [Example 184, 6-{3,5-Difluoro-4-[3-((R)-2-methyl-pyrrolidin-1-yl)-propoxy]-phenyl}-2H-pyridazin-3-one] are 169 to 171 °C, 0.1 to 100 nM and 0.1 to 100 nM.
The like results for `C[C@@H]1CCCN1CCCOc1c(Br)cc(-c2ccc(=O)[nH]n2)cc1Br` [Example 185, 6-{3,5-Dibromo-4-[3-((R)-2-methyl-pyrrolidin-1-yl)-propoxy]-phenyl}-2H-pyridazin-3-one] were, in that order, 165 to 167 °C, 0.1 to 100 nM and 0.1 to 100 nM.
`C[C@@H]1CCCN1CCCOc1c(F)cc(C2=NNC(=O)CC2)cc1F` [Example 186, 6-{3,5-Difluoro-4-[3-((R)-2-methyl-pyrrolidin-1-yl)-propoxy]-phenyl}-4,5-dihydro-2H-pyridazin-3-one] came in with a melting point of 102 to 104 °C. Further, in data set [1], the Ki lay within 0.1 to 100 nM. Also, the Ki on human H3 receptor (setting [2]) lay in the range of 0.1 to 100 nM.
In turn, `O=C1CCC(c2cc(F)c(OC3CCN(C4CCC4)CC3)c(F)c2)=NN1` [Example 187, 6-[4-(1-Cyclobutyl-piperidin-4-yloxy)-3,5-difluoro-phenyl]-4,5-dihydro-2H-pyridazin-3-one] displayed a melting point of 162 to 164 °C. Besides, in data set [1], the Ki fell in the range of 0.1 to 100 nM. Further, the inhibitory constant (Ki) on human H3 receptor (setting [2]) lay in the range of 0.1 to 100 nM.
With `O=c1ccc(-c2cc(F)c(OC3CCN(C4CCC4)CC3)c(F)c2)n[nH]1` [Example 188, 6-[4-(1-Cyclobutyl-piperidin-4-yloxy)-3,5-difluoro-phenyl]-2H-pyridazin-3-one], the melting point is 195 to 197 °C. Also, the Ki in data set [1] was in the range of 0.1 to 100 nM. Further, the Ki at human H3 receptor (setting [2]) fell in the range of 0.1 to 100 nM.
`CCC1CC(=O)NN=C1c1ccc(OC2CCN(C3CCC3)CC2)cc1` (stereo not drawn) [Example 192] had a melting point of 152 to 154 °C. Also, the Ki in data set [1] is 0.1 to 100 nM. The same molecule showed a Ki at human H3 receptor (cell prints a number instead of a letter) of 4 nM.
`C[C@@H]1CCCN1CCCOc1ccc(-n2nc(-c3ccccc3)ccc2=O)cc1` [Example 200, 2-{4-[3-((R)-2-Methyl-pyrrolidin-1-yl)-propoxy]-phenyl}-6-phenyl-2H-pyridazin-3-one] registered a melting point of 86 to 89 °C. Further, in data set [1], the Ki fell in the range of 0.1 to 100 nM. Also, on human H3 receptor (setting [2]), the inhibition constant Ki was in the range of 0.1 to 100 nM.
Regarding `C[C@@H]1CCCN1CCCOc1ccc(-n2ncc3ccccc3c2=O)cc1` [Example 202, 2-{4-[3-((R)-2-Methyl-pyrrolidin-1-yl)-propoxy]-phenyl}-2H-phthalazin-1-one], the melting point lay within 70 to 73 °C. The Ki in data set [1] fell in the range of 0.1 to 100 nM. For the same molecule, the Ki at human H3 receptor (setting [2]) was in the range of 0.1 to 100 nM.
The molecule `C[C@@H]1CCCN1CCCOc1ccc(-n2nc(-c3cccnc3)ccc2=O)cc1` [Example 204, 2-{4-[3-((R)-2-Methyl-pyrrolidin-1-yl)-propoxy]-phenyl}-6-pyridin-3-yl-2H-pyridazin-3-one] showed a melting point of 87 to 90 °C. Besides, in data set [1], the Ki fell in the range of 0.1 to 100 nM. The same molecule showed a Ki on human H3 receptor (setting [2]) of 0.1 to 100 nM.
In the case of `Cc1onc2c(=O)[nH]nc(-c3ccc(OCCCN4CCCCC4)cc3)c12` [Example 207, 3-Methyl-4-[4-(3-piperidin-1-yl-propoxy)-phenyl]-6H-isoxazolo[3,4-d]pyridazin-7-one], the melting point was 178 to 179 °C. In addition, the Ki in data set [1] was in the range of 0.1 to 100 nM. The Ki on human H3 receptor (setting [2]) was in the range of 0.1 to 100 nM.
As for `Cc1onc2c(=O)[nH]nc(-c3ccc(OCCCN4CCC[C@H]4C)cc3)c12` [Example 208, 3-Methyl-4-{4-[3-((R)-2-methyl-pyrrolidin-1-yl)-propoxy]-phenyl}-6H-isoxazolo[3,4-d]pyridazin-7-one], the melting point lay in the range of 169 to 170 °C. In addition, the Ki in data set [1] lay within 0.1 to 100 nM. Moreover, the Ki on human H3 receptor (setting [2]) lay within 0.1 to 100 nM.
`Cc1cc(=O)[nH]nc1-c1ccc(OCCCN2CCC[C@H]2C)cc1` [Example 210, 5-Methyl-6-{4-[3-((R)-2-methyl-pyrrolidin-1-yl)-propoxy]-phenyl}-2H-pyridazin-3-one]: the melting point is 253 to 255 °C. Further, in data set [1], the Ki lay within 0.1 to 100 nM. On human H3 receptor (setting [2]), this molecule yielded a Ki of 0.1 to 100 nM.
The molecule `CCc1cc(=O)[nH]nc1-c1ccc(OCCCN2CCC[C@H]2C)cc1` [Example 211, 5-Ethyl-6-{4-[3-((R)-2-methyl-pyrrolidin-1-yl)-propoxy]-phenyl}-2H-pyridazin-3-one] showed a melting point of 272 to 275 °C. Also, in data set [1], the Ki lay within 0.1 to 100 nM. The molecule also showed an inhibition constant Ki on human H3 receptor (setting [2]) of 0.1 to 100 nM.
`C[C@@H]1CCCN1CCCOc1ccc(-c2ccc(=O)[nH]n2)c(F)c1` [Example 214, 6-{2-Fluoro-4-[3-((R)-2-methyl-pyrrolidin-1-yl)-propoxy]-phenyl}-2H-pyridazin-3-one] registered a melting point of 220 to 222 °C. For the same molecule, the Ki in data set [1] is 0.1 to 100 nM. The same molecule showed an inhibitory constant (Ki) at human H3 receptor (setting [2]) of 0.1 to 100 nM.
In the case of `O=C1CC2CCc3cc(OC4CCN(C5CCC5)CC4)ccc3C2=NN1` (stereo not drawn) [Example 220, 8-(1-Cyclobutyl-piperidin-4-yloxy)-4,4a,5,6-tetrahydro-2H-benzo[h]cinnolin-3-one], the melting point was greater than 300 °C. Also, the Ki in data set [1] is 0.1 to 100 nM. At human H3 receptor (setting [2]), this molecule showed a Ki of 0.1 to 100 nM.
In turn, `O=c1ccc(-c2ccc(OC3CCN(C4CCC4)CC3)cc2F)n[nH]1` [Example 221, 6-[4-(1-Cyclobutyl-piperidin-4-yloxy)-2-fluoro-phenyl]-2H-pyridazin-3-one] had a melting point greater than 300 °C. For the same molecule, in data set [1], the Ki was 0.1 to 100 nM. Also, the Ki at human H3 receptor (setting [2]) fell in the range of 0.1 to 100 nM.
As for `Cc1cc(=O)[nH]nc1-c1ccc(OC2CCN(C3CCC3)CC2)cc1` [Example 222, 6-[4-(1-Cyclobutyl-piperidin-4-yloxy)-phenyl]-5-methyl-2H-pyridazin-3-one], the melting point is greater than 300 °C. In addition, the Ki in data set [1] lay in the range of 0.1 to 100 nM. This molecule also came in with a Ki at human H3 receptor (setting [2]) of 0.1 to 100 nM.
`COCn1ncc(-c2ccc(OCCCN3CCC[C@H]3C)cc2)cc1=O` [Example 224, 2-Methoxymethyl-5-{4-[3-((R)-2-methyl-pyrrolidin-1-yl)-propoxy]-phenyl}-2H-pyridazin-3-one] displayed a melting point of 183 to 185 °C. Also, the Ki in data set [1] fell in the range of 0.1 to 100 nM. On human H3 receptor (setting [2]), this molecule registered an inhibitory constant (Ki) of 0.1 to 100 nM.
Molecule `C[C@H](COc1ccc(-c2cn[nH]c(=O)c2)cc1)CN1CCCCC1` [Example 227, 5-[4-((S)-2-Methyl-3-piperidin-1-yl-propoxy)-phenyl]-2H-pyridazin-3-one] returned a melting point of 145 to 148 °C. Besides, the Ki in data set [1] was in the range of 0.1 to 100 nM. The Ki on human H3 receptor (setting [2]) lay within 0.1 to 100 nM.
